Laboratory results: PMC5218480 (PLoS ONE, 2017)

Test system: MV-4-11 cells
Assay: Gene expression microarray analysis (Affymetrix PrimeView) and GSEA
Assay type: cell-based, human
Set-up: RFU PODN (11730768_x_at) / Fold change /veh PODN (11730768_x_at) / RFU LINC00158 (11744669_a_at) / Fold change /veh LINC00158 (11744669_a_at) / RFU DUSP10 (11751237_a_at) / Fold change /veh DUSP10 (11751237_a_at) / RFU ID3 (11757404_x_at) / Fold change /veh ID3 (11757404_x_at) / RFU PLEKHG5 (11737974_s_at) / Fold change /veh PLEKHG5 (11737974_s_at) / RFU LRRC4B (11730491_at) / Fold change /veh LRRC4B (11730491_at) / RFU GIMAP4 (11747438_a_at) / Fold change /veh GIMAP4 (11747438_a_at) / RFU KRT8 (11758183_x_at) / Fold change /veh KRT8 (11758183_x_at) / RFU CNN1 (11734310_a_at) / Fold change /veh CNN1 (11734310_a_at) / RFU VPS37D (11726825_at) / Fold change /veh VPS37D (11726825_at) / RFU C10orf10 (11716522_x_at) / Fold change /veh C10orf10 (11716522_x_at) / RFU KIR2DL2 /// KIR2DL4 /// KIR2DL5A /// KIR2DL5B /// KIR2DS1 /// KIR2DS2 /// KIR2DS3 /// KIR2DS4 /// KIR3DL3 /// KIR3DL3 /// KIR3DS1 (11738374_at) / Fold change /veh KIR2DL2 /// KIR2DL4 /// KIR2DL5A /// KIR2DL5B /// KIR2DS1 /// KIR2DS2 /// KIR2DS3 /// KIR2DS4 /// KIR3DL3 /// KIR3DL3 /// KIR3DS1 (11738374_at) / RFU C1QL1 (11718748_at) / Fold change /veh C1QL1 (11718748_at) / RFU TMPRSS4 (11747572_a_at) / Fold change /veh TMPRSS4 (11747572_a_at) / RFU HAMP (11756126_x_at) / Fold change /veh HAMP (11756126_x_at) / RFU RNFT2 (11725882_a_at) / Fold change /veh RNFT2 (11725882_a_at) / RFU NR4A2 (11747474_a_at) / Fold change /veh NR4A2 (11747474_a_at) / RFU ABCC12 (11746883_a_at) / Fold change /veh ABCC12 (11746883_a_at) / RFU TMEM136 (11760407_x_at) / Fold change /veh TMEM136 (11760407_x_at) / RFU CLDN22 /// WWC2 (11732394_at) / Fold change /veh CLDN22 /// WWC2 (11732394_at) / RFU HLA-DPB1 (11760878_x_at) / Fold change /veh HLA-DPB1 (11760878_x_at) / RFU SPINT1 (11716480_a_at) / Fold change /veh SPINT1 (11716480_a_at) / RFU GAP43 (11754022_s_at) / Fold change /veh GAP43 (11754022_s_at) / RFU A4GNT (11735810_at) / Fold change /veh A4GNT (11735810_at) / RFU PRB3 (11715151_x_at) / Fold change /veh PRB3 (11715151_x_at) / RFU TUBB4B (11761932_at) / Fold change /veh TUBB4B (11761932_at) / RFU CAPN14 (11732068_a_at) / Fold change /veh CAPN14 (11732068_a_at) / RFU TMCC2 (11721928_a_at) / Fold change /veh TMCC2 (11721928_a_at) / RFU IRGQ (11745062_a_at) / Fold change /veh IRGQ (11745062_a_at) / RFU FAM174B (11720279_a_at) / Fold change /veh FAM174B (11720279_a_at) / RFU TMPRSS4 (11748680_a_at) / Fold change /veh TMPRSS4 (11748680_a_at) / RFU FAM212B (11763350_a_at) / Fold change /veh FAM212B (11763350_a_at) / RFU PLEKHG5 (11743358_a_at) / Fold change /veh PLEKHG5 (11743358_a_at) / RFU ZSCAN30 (11745921_a_at) / Fold change /veh ZSCAN30 (11745921_a_at) / RFU CMKLR1 (11741424_a_at) / Fold change /veh CMKLR1 (11741424_a_at) / RFU LOC101060620 /// MAPK8IP1 (11723275_at) / Fold change /veh LOC101060620 /// MAPK8IP1 (11723275_at) / RFU SPTSSB (11747773_x_at) / Fold change /veh SPTSSB (11747773_x_at) / RFU PRSS12 (11739890_at) / Fold change /veh PRSS12 (11739890_at) / RFU BIN1 (11741810_x_at) / Fold change /veh BIN1 (11741810_x_at) / RFU WNT11 (11732464_a_at) / Fold change /veh WNT11 (11732464_a_at) / RFU C10orf10 (11716521_a_at) / Fold change /veh C10orf10 (11716521_a_at) / RFU C5orf56 (11738089_at) / Fold change /veh C5orf56 (11738089_at) / RFU CYB561 (11721691_x_at) / Fold change /veh CYB561 (11721691_x_at) / RFU ANKRD19P (11752326_a_at) / Fold change /veh ANKRD19P (11752326_a_at) / RFU OR2T12 /// OR2T33 /// OR2T8 (11738714_s_at) / Fold change /veh OR2T12 /// OR2T33 /// OR2T8 (11738714_s_at) / RFU VCAN (11748164_a_at) / Fold change /veh VCAN (11748164_a_at) / RFU JSRP1 (11732532_at) / Fold change /veh JSRP1 (11732532_at) / RFU KRTAP10-11 (11738290_x_at) / Fold change /veh KRTAP10-11 (11738290_x_at) / RFU MYO3A (11730013_a_at) / Fold change /veh MYO3A (11730013_a_at) / RFU EBF3 (11725865_a_at) / Fold change /veh EBF3 (11725865_a_at) / RFU CAMK2N1 (11719241_x_at) / Fold change /veh CAMK2N1 (11719241_x_at) / RFU C5orf56 (11738088_a_at) / Fold change /veh C5orf56 (11738088_a_at) / RFU OLFML3 (11715873_a_at) / Fold change /veh OLFML3 (11715873_a_at) / RFU LOC100653217 /// NTM (11731650_a_at) / Fold change /veh LOC100653217 /// NTM (11731650_a_at) / RFU MAPK11 (11762145_a_at) / Fold change /veh MAPK11 (11762145_a_at) / RFU FIZ1 (11724087_x_at) / Fold change /veh FIZ1 (11724087_x_at) / RFU OASL (11726364_x_at) / Fold change /veh OASL (11726364_x_at) / RFU SOX15 (11748057_x_at) / Fold change /veh SOX15 (11748057_x_at) / RFU CD79A (11719716_a_at) / Fold change /veh CD79A (11719716_a_at) / RFU HIST1H1D (11736915_at) / Fold change /veh HIST1H1D (11736915_at) / RFU CASKIN2 (11723855_a_at) / Fold change /veh CASKIN2 (11723855_a_at) / RFU LOC730098 (11760151_x_at) / Fold change /veh LOC730098 (11760151_x_at) / RFU OR4N2 (11742367_at) / Fold change /veh OR4N2 (11742367_at) / RFU PRRT2 (11749266_a_at) / Fold change /veh PRRT2 (11749266_a_at) / RFU SNX32 (11753110_a_at) / Fold change /veh SNX32 (11753110_a_at) / RFU CDHR5 (11726645_a_at) / Fold change /veh CDHR5 (11726645_a_at) / RFU RCAN1 (11760418_a_at) / Fold change /veh RCAN1 (11760418_a_at) / RFU FAM167A (11723789_a_at) / Fold change /veh FAM167A (11723789_a_at) / RFU FAM26E (11764081_at) / Fold change /veh FAM26E (11764081_at) / RFU ISYNA1 (11749810_s_at) / Fold change /veh ISYNA1 (11749810_s_at) / RFU ACY1 (11761880_at) / Fold change /veh ACY1 (11761880_at) / RFU 11764098_at / Fold change /veh 11764098_at / RFU SAMD14 (11745864_x_at) / Fold change /veh SAMD14 (11745864_x_at) / RFU NPB (11741838_a_at) / Fold change /veh NPB (11741838_a_at) / RFU TMPRSS6 (11731388_a_at) / Fold change /veh TMPRSS6 (11731388_a_at) / RFU KRTAP10-2 (11738614_at) / Fold change /veh KRTAP10-2 (11738614_at) / RFU ARHGAP8 /// PRR5-ARHGAP8 (11727945_x_at) / Fold change /veh ARHGAP8 /// PRR5-ARHGAP8 (11727945_x_at) / RFU KRTAP5-7 /// NADSYN1 (11734609_at) / Fold change /veh KRTAP5-7 /// NADSYN1 (11734609_at) / RFU RASL12 (11751679_a_at) / Fold change /veh RASL12 (11751679_a_at) / RFU CDKN2B (11736163_a_at) / Fold change /veh CDKN2B (11736163_a_at) / RFU PRF1 (11729649_at) / Fold change /veh PRF1 (11729649_at) / RFU, ZNF638 /// ZNF638-IT1 / Fold change vs veh, ZNF638 /// ZNF638-IT1 / RFU, PANK3 / Fold change vs veh, PANK3 / RFU, SH3YL1 / Fold change vs veh, SH3YL1 / RFU, ZEB2 / Fold change vs veh, ZEB2 / RFU, NRIP1 / Fold change vs veh, NRIP1 / RFU, PTTG1IP / Fold change vs veh, PTTG1IP / RFU, CAPN2 / Fold change vs veh, CAPN2 / RFU, MED14 / Fold change vs veh, MED14 / RFU, SNORA58 / Fold change vs veh, SNORA58 / RFU, C1orf63 / Fold change vs veh, C1orf63 / RFU, LRRFIP1 / Fold change vs veh, LRRFIP1 / RFU, NDUFAF7 / Fold change vs veh, NDUFAF7 / RFU, SLC12A2 / Fold change vs veh, SLC12A2 / RFU, IBTK / Fold change vs veh, IBTK / RFU, ESF1 / Fold change vs veh, ESF1 / Fold change vs veh, TMEM50B / RFU, TAOK1 / Fold change vs veh, TAOK1 / RFU, ACBD3 / Fold change vs veh, ACBD3 / RFU, TMA16 / Fold change vs veh, TMA16 / RFU, RWDD3 / Fold change vs veh, RWDD3 / RFU, BCAT1 / Fold change vs veh, BCAT1 / RFU, EDEM3 / Fold change vs veh, EDEM3 / RFU, TMEM33 / Fold change vs veh, TMEM33 / RFU, WDR75 / Fold change vs veh, WDR75 / RFU, AHCTF1 / Fold change vs veh, AHCTF1 / RFU, TFRC / Fold change vs veh, TFRC / RFU, ZDHHC17 / Fold change vs veh, ZDHHC17 / RFU, NOM1 / Fold change vs veh, NOM1 / RFU, ARL8B / Fold change vs veh, ARL8B / RFU, ZBTB11 / Fold change vs veh, ZBTB11 / RFU, TAMM41 / Fold change vs veh, TAMM41 / RFU, KIAA1704 /// LOC100996395 / Fold change vs veh, KIAA1704 /// LOC100996395 / RFU, ING1 / Fold change vs veh, ING1 / RFU, TRMT61B / Fold change vs veh, TRMT61B / RFU, FUBP3 / Fold change vs veh, FUBP3 / RFU, TP53 / Fold change vs veh, TP53 / RFU, TNKS2 / Fold change vs veh, TNKS2 / RFU, ZFP14 / Fold change vs veh, ZFP14 / RFU, ACTR2 / Fold change vs veh, ACTR2 / RFU, PPP3R1 / Fold change vs veh, PPP3R1 / RFU, PIK3R1 / Fold change vs veh, PIK3R1 / RFU, HNRNPA1 / Fold change vs veh, HNRNPA1 / RFU, RNF170 / Fold change vs veh, RNF170 / RFU, ZNF28 / Fold change vs veh, ZNF28 / RFU, RNGTT / Fold change vs veh, RNGTT / RFU, OGT / Fold change vs veh, OGT / RFU, BRD1 / Fold change vs veh, BRD1 / RFU, MARS / Fold change vs veh, MARS / RFU, ZNF655 / Fold change vs veh, ZNF655 / RFU, FAHD1 / Fold change vs veh, FAHD1 / RFU, BDP1 / Fold change vs veh, BDP1 / RFU, LRRCC1 / Fold change vs veh, LRRCC1 / RFU, ARID1A / Fold change vs veh, ARID1A / RFU, ZNF146 / Fold change vs veh, ZNF146 / RFU, ZNF330 / Fold change vs veh, ZNF330 / RFU, GPN3 / Fold change vs veh, GPN3 / RFU, C9orf123 / Fold change vs veh, C9orf123 / RFU, N4BP2L2 / Fold change vs veh, N4BP2L2 / RFU, ARFIP1 / Fold change vs veh, ARFIP1 / RFU, FAM179B / Fold change vs veh, FAM179B / RFU, BCL10 / Fold change vs veh, BCL10 / RFU, UHRF1BP1L / Fold change vs veh, UHRF1BP1L / RFU, BET1 / Fold change vs veh, BET1 / RFU, CNOT2 / Fold change vs veh, CNOT2 / RFU, ZNF268 / Fold change vs veh, ZNF268 / Fold change vs veh, ZNF507 / RFU, DGCR2 / Fold change vs veh, DGCR2 / RFU, WDSUB1 / Fold change vs veh, WDSUB1 / Fold change vs veh, HSP90B1 /// MIR3652 / RFU, ADSS / Fold change vs veh, ADSS / RFU, GK / Fold change vs veh, GK / RFU, ZNF148 / Fold change vs veh, ZNF148 / RFU, TAF9 / Fold change vs veh, TAF9 / RFU, SLC1A5 / Fold change vs veh, SLC1A5 / RFU, SLMO2 / Fold change vs veh, SLMO2 / RFU, ABCC4 / Fold change vs veh, ABCC4 / RFU, LOC101060439 /// RAP1B / Fold change vs veh, LOC101060439 /// RAP1B / RFU, RFX7 / Fold change vs veh, RFX7 / RFU, GTPBP10 / Fold change vs veh, GTPBP10 / RFU, CNEP1R1 / Fold change vs veh, CNEP1R1 / RFU, BIVM-ERCC5 /// ERCC5 / Fold change vs veh, BIVM-ERCC5 /// ERCC5 / RFU, ILF3 / Fold change vs veh, ILF3 / RFU 11762660_at / Fold change /veh 11762660_at / RFU VCAN (11757783_s_at) / Fold change /veh VCAN (11757783_s_at) / RFU DDX43 (11728927_at) / Fold change /veh DDX43 (11728927_at) / RFU KRT8 (11758188_x_at) / Fold change /veh KRT8 (11758188_x_at) / RFU NKD1 (11759106_at) / Fold change /veh NKD1 (11759106_at) / RFU SRD5A1 (11742802_a_at) / Fold change /veh SRD5A1 (11742802_a_at) / RFU TPSAB1 /// TPSB2 (11721975_s_at) / Fold change /veh TPSAB1 /// TPSB2 (11721975_s_at) / RFU GSTM3 (11746129_a_at) / Fold change /veh GSTM3 (11746129_a_at) / RFU IL23R (11737362_x_at) / Fold change /veh IL23R (11737362_x_at) / RFU TMEM51 (11727254_a_at) / Fold change /veh TMEM51 (11727254_a_at) / RFU PIWIL2 (11732686_x_at) / Fold change /veh PIWIL2 (11732686_x_at) / RFU ORM1 (11744905_x_at) / Fold change /veh ORM1 (11744905_x_at) / RFU CCDC152 (11743942_at) / Fold change /veh CCDC152 (11743942_at) / RFU ECM1 (11717891_a_at) / Fold change /veh ECM1 (11717891_a_at) / RFU IL23R (11748794_a_at) / Fold change /veh IL23R (11748794_a_at) / RFU TNFAIP8L3 (11732012_x_at) / Fold change /veh TNFAIP8L3 (11732012_x_at) / RFU MBOAT4 (11741988_at) / Fold change /veh MBOAT4 (11741988_at) / RFU 11764193_at / Fold change /veh 11764193_at / RFU TMEM53 (11763286_at) / Fold change /veh TMEM53 (11763286_at) / RFU MAGEB2 (11727129_at) / Fold change /veh MAGEB2 (11727129_at) / RFU TMEM200A (11744735_a_at) / Fold change /veh TMEM200A (11744735_a_at) / RFU CCDC152 (11751479_a_at) / Fold change /veh CCDC152 (11751479_a_at) / RFU FAM211A (11726209_a_at) / Fold change /veh FAM211A (11726209_a_at) / RFU RGS16 (11746705_a_at) / Fold change /veh RGS16 (11746705_a_at) / RFU VCAN (11755009_s_at) / Fold change /veh VCAN (11755009_s_at) / RFU RHOB (11743442_s_at) / Fold change /veh RHOB (11743442_s_at) / RFU RGS16 (11720943_a_at) / Fold change /veh RGS16 (11720943_a_at) / RFU RGS16 (11720944_at) / Fold change /veh RGS16 (11720944_at) / RFU, VPS4B / Fold change vs veh, VPS4B / RFU, CREB1 / Fold change vs veh, CREB1 / RFU, DNAJC13 / Fold change vs veh, DNAJC13 / RFU, GNAQ / Fold change vs veh, GNAQ / RFU, CDK5R1 / Fold change vs veh, CDK5R1 / RFU, ZRANB3 / Fold change vs veh, ZRANB3 / RFU, CUL4A / Fold change vs veh, CUL4A / RFU, CCNY / Fold change vs veh, CCNY / RFU, UFL1 / Fold change vs veh, UFL1 / RFU, COG3 / Fold change vs veh, COG3 / RFU, DIAPH2 / Fold change vs veh, DIAPH2 / RFU, SKA2 / Fold change vs veh, SKA2 / RFU, AFF3 / Fold change vs veh, AFF3 / RFU, LMF1 / Fold change vs veh, LMF1 / RFU, IPO11 / Fold change vs veh, IPO11 / RFU, DFFB / Fold change vs veh, DFFB / RFU, FOXP1 / Fold change vs veh, FOXP1 / RFU, CARD8 / Fold change vs veh, CARD8 / RFU, STRN3 / Fold change vs veh, STRN3 / RFU, ADK / Fold change vs veh, ADK / RFU, RASSF2 / Fold change vs veh, RASSF2 / RFU, WIPF1 / Fold change vs veh, WIPF1 / RFU, LARP1B / Fold change vs veh, LARP1B / RFU, RASA1 / Fold change vs veh, RASA1 / RFU, RB1 / Fold change vs veh, RB1 / RFU, PPFIA1 / Fold change vs veh, PPFIA1 / RFU, MAT2A / Fold change vs veh, MAT2A / RFU, CCT5 / Fold change vs veh, CCT5 / RFU, WDR92 / Fold change vs veh, WDR92 / RFU, CUX1 / Fold change vs veh, CUX1 / RFU, TTC7A / Fold change vs veh, TTC7A / RFU, TMEM135 / Fold change vs veh, TMEM135 / RFU, DEPTOR / Fold change vs veh, DEPTOR / RFU, CPM / Fold change vs veh, CPM / RFU, DNAJB6 / Fold change vs veh, DNAJB6 / RFU, CACNA2D3 / Fold change vs veh, CACNA2D3 / RFU, DTX4 / Fold change vs veh, DTX4 / RFU, TFCP2 / Fold change vs veh, TFCP2 / RFU, GMCL1 /// GMCL1P1 / Fold change vs veh, GMCL1 /// GMCL1P1 / RFU, AEBP2 / Fold change vs veh, AEBP2 / RFU, SNHG1 /// SNORD22 /// SNORD25 /// SNORD26 /// SNORD27 /// SNORD28 /// SNORD29 /// SNORD31 / Fold change vs veh, SNHG1 /// SNORD22 /// SNORD25 /// SNORD26 /// SNORD27 /// SNORD28 /// SNORD29 /// SNORD31 / Fold change (Aza/veh), C12orf56 (ProbeSet 11735607_a_at) / Fold change (ACY-1035/veh), C12orf56 (ProbeSet 11735607_a_at) / Fold change (Aza/veh), FGFR1OP (ProbeSet 11751329_s_at) / Fold change (ACY-1035/veh), FGFR1OP (ProbeSet 11751329_s_at) / Fold change (Aza/veh), VPS36 (ProbeSet 11739960_a_at) / Fold change (ACY-1035/veh), VPS36 (ProbeSet 11739960_a_at) / RFU SYPL1 (11715823_x_at) / Fold change /veh SYPL1 (11715823_x_at) / RFU IGFBP7 (11715501_s_at) / Fold change /veh IGFBP7 (11715501_s_at) / RFU REEP3 (11722064_at) / Fold change /veh REEP3 (11722064_at) / RFU IGLL1 (11728026_x_at) / Fold change /veh IGLL1 (11728026_x_at): dose or concentration left out as unconfirmed
Conditions: ProbeSet 11743580_s_at; LIST B

Q: `Nc1ccc(-c2cccs2)cc1NC(=O)c1ccc2c(c1)cc(C1CC1)n2CCN1CCOCC1` [ACY-1035] was tested. Which “RFU, ACTR2” value did it give?
A: 854.57 RFU
